Data: PMC6493972, “Synthesis and Biological Evaluation of (E)-4-Hydroxy-3-methylbut-2-enyl Phosphate (HMBP) Aryloxy Triester Phosphoramidate Prodrugs as Activators of Vγ9/Vδ2 T-Cell Immune Responses” (Journal of Medicinal Chemistry, 2018)

Assays:
Vγ9/Vδ2 T-cells = experiment: Activation of Vγ9/Vδ2 T-cells in PBMC (upregulation of CD69 and CD25); type: cell-based; conditions: human PBMC from healthy donors, 18 h, n = 4-5 donors, Figure 2d and text
PBMC = experiment: Specific cell death in PBMC cultures (ED50, viability dye); type: cell-based, human; conditions: supplementary CSV
Protocol: Figure 2 Activation of human Vγ9/Vδ2^+ T cells by HMBP ProPAgens. (a) Human peripheral blood mononuclear cells (PBMC) were incubated with media or indicated concentrations of HMB-PP or zoledronate for 18 h. TCR Vγ9/Vδ2^+ T cells were then assessed for the upregulation of cell surface markers, CD69 and CD25. Data representative of n = 5. (b) As in (a), with PBMC incubated with indicated concentrations of HMBP ProPAgens. Data representative of n = 4. (c) As in (a) and (b), with data showing titrations of each of HMB-PP, zoledronate, and HMBP ProPAgens, alongside a medium control (M). Data from n = 4–5 donors. (d) EC50, ED50, and selectivity index (SI) values for each HMBP ProPAgens. Specific cell death, for ED50 values, was calculated after adjusting for nonspecific cell death in medium controls. (e) CD69 and CD25 activation in CD3^+ CD8^+ αβ T-cells for each compound.
I. T-cell isolation, culture and activation
PBMCs were isolated from heparinised venous blood from consented healthy donors (approved by the NRES Committee West Midlands ethical board; REC reference 14/WM/1254). Blood was layered over lymphoprep© (Stem Cell Technologies) and PBMC isolated according to manufacturers instructions. The cell culture medium used throughout was RPMI-1640 media supplemented with 2 mM L-glutamine, 25 mM HEPES, 1% sodium pyruvate, 50 μg/ml penicillin/streptomycin (Invitrogen) and 10% fetal calf serum (Sigma). For activation assays, 5 x 10^5 PBMC were cultured for 20 h in the presence of medium alone or the indicated concentrations of HMB-PP (Sigma), Zoledronate (Sigma), 5a, 5b, 5c and 5d (as described above). Cultured PBMC were labelled with Zombie© aqua viability dye (Biolegend) and cells were stained for surface antigens by antibodies directed against CD3 (UCHT1; […]
(§1) (IMMU360; 1:400); Beckman Coulter, and TCR Vδ2 (123R3; 1:200); Miltenyi. […] All cells were then labelled with Zombie© aqua viability dye and CFSE+ Zombie© aqua+ cells measured. All data were acquired on an LSR II (Beckton Dickinson) and data analysed with FlowJo V10.1 (TreeStar). Tabulated data were analysed in Graphpad PRISM 7

[1] = molecular target: T1, carboxypeptidase cathepsin A (Homo sapiens, UniProt P10619); experiment: In vitro cathepsin A mediated degradation monitored by 31P NMR and mass spectroscopy; type: in vitro ADME; conditions: after 72 h
T1 sequence (P10619 29-480): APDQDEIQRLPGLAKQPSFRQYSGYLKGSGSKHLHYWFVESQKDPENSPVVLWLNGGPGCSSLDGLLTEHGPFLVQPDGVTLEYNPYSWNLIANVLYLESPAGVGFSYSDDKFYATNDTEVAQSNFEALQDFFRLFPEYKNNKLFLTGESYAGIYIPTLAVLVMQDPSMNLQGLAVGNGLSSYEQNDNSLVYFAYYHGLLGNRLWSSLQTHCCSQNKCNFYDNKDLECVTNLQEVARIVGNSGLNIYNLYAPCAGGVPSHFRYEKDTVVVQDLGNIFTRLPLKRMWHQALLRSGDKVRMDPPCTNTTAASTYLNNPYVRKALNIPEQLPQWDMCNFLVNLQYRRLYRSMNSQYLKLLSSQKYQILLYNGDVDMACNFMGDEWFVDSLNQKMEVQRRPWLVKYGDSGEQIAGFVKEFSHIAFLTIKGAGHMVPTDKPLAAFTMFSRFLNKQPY
Protocol: In order to get an insight into the metabolism of ProPAgens 6a–d, compound 6d was incubated with the carboxypeptidase cathepsin A in vitro and the reaction was monitored with ^31P NMR. […] This may explain literature reports pursuing the phosphonates of HMBP where the −O-P- bond was replaced by a −CH2-P- one and lack of reports on the native HMBP phosphate prodrugs.[19]

[2] = test system: T24 urinary bladder carcinoma cell line; experiment: Specific lysis of pulsed T24 bladder carcinoma cells by expanded Vγ9/Vδ2 T cells; type: cell-based, human; conditions: T24 pulsed 4 h with 10 nM ProPAgens or 10 μM zoledronate, cocultured 18 h with expanded Vγ9/Vδ2 T cells
Protocol: Next, we tested the potential for ProPAgens to sensitize the urinary bladder carcinoma cell line T24 for targeted killing by in vitro expanded Vγ9/Vδ2 T cells. Without sensitization, medium pulsed T24 cells were poorly targeted by increasing ratios of Vγ9/Vδ2 T cells, but upon pulsing for 4 h with zoledronate or ProPAgens 5a–d, T24 cells were specifically lysed (Figure 3a). […] In contrast, a 1000-fold lower concentration of each ProPAgen mediated a 2- to 4-fold increase in specific lysis of T24 over the same period (Figure 3b).
Figure 3 HMBP ProPAgens mediate the specific lysis of bladder cancer cells by Vγ9/Vδ2 T-cells. […] Specific killing of target cells was measured by amine-reactive dead cell marker staining. […] (b) As in (a) showing the mean ± SD specific killing of T24 cells at 1:10 target/effector ratio for each indicated treatment, n = 2: (∗) P < 0.05; (∗∗) P < 0.01; determined by one-way ANOVA. […]
as §1

SMILES	EC50, activation of Vγ9/Vδ2 T-cells (Vγ9/Vδ2 T-cells)	ED50 (PBMC) [µM]	also measured
COC(=O)[C@H](C)NP(=O)(OC/C=C(\C)CO[Si](C)(C)C(C)(C)C)Oc1ccccc1 (stereo partly drawn) [5a, Methyl ((((E)-4-((tert-Butyldimethylsilyl)oxy)-3-methylbut-2-en-1-yl)oxy)(phenoxy)phosphoryl)-L-alaninate]	low nanomolar activation		
C/C(=C\COP(=O)(O)OP(=O)(O)O)CO [HMBPP, (E)-4-hydroxy-3-methyl-but-2-enyl pyrophosphate]		>100	
C/C(=C\COP(=O)(N[C@@H](C)C(=O)OC(C)(C)C)Oc1ccccc1)CO (stereo partly drawn) [6d, tert-Butyl ((((E)-4-Hydroxy-3-methylbut-2-en-1-yl)oxy)(phenoxy)phosphoryl)-L-alaninate]			degradation product (major metabolite) after incubation with cathepsin A [1]: phosphate group masked with the aryl motif and the amino acid ester moiety
C/C(=C\COP(=O)(N[C@@H](C)C(=O)OC(C)(C)C)Oc1ccccc1)CO[Si](C)(C)C(C)(C)C (stereo partly drawn) [5d, tert-Butyl ((((E)-4-((tert-Butyldimethylsilyl)oxy)-3-methylbut-2-en-1-yl)oxy)(phenoxy)phosphoryl)-L-alaninate]	low nanomolar activation	>100	
O.O=P(O)(O)C(O)(Cn1ccnc1)P(=O)(O)O [Zoledronate]		>100	specific lysis/killing of T24 cells by Vγ9/Vδ2 T cells (in words) [2]: only a marginal increase
C/C(=C\COP(=O)(N[C@@H](C)C(=O)OC(C)C)Oc1ccccc1)CO[Si](C)(C)C(C)(C)C (stereo partly drawn) [5c, Isopropyl ((((E)-4-((tert-Butyldimethylsilyl)oxy)-3-methylbut-2-en-1-yl)oxy)(phenoxy)phosphoryl)-L-alaninate]	low nanomolar activation		
